Values quoted from earlier work as cited in patent US5840770A, “Method of killing tumor cells” (Hill Medical Corporation, priority 1997, dated 1998).

Key:
[1] = tested on: mouse and rat transplanted tumors; details: in vivo
serum potassium = details: in vivo
cholinergic receptors = details: in vivo
[2] = normally
[3] = not given; remark: listed apart in the source
[4] = tested on: low-grade non-Hodgkin's lymphoma, cutaneous T cell lymphoma, chronic myelogenous leukemia, Kaposi's sarcoma and especially hairy cell leukemia

In the case of Glucagon: glucagon alone, the “effect on transplanted tumors” value [1] is listed as “arrested these cancers”.
In the case of insulin, the serum potassium concentration (serum potassium) is given as “lowers serum potassium concentration” and the “effect on transplanted tumors” value [1] is given as “no therapeutic effect”.
In the case of `CC[C@@H]1C(=O)OC[C@@H]1Cc1cncn1C` [Pilocarpine, pilocarpine], the duration (cholinergic receptors) is listed as 4 to 8 h and the onset (cholinergic receptors) is listed as 15 to 30 min.
For `[K+]` [potassium], the “potassium intake excreted in the urine” value [2] is given as 80-90%.
For `O=C[C@H](O)[C@@H](O)[C@H](O)[C@H](O)CO` [dextrose], the infused glucose retained (0.8 gm/kg/hour) is given as 95%, the “maximum infusion rate without producing glycosuria” value (in vivo) is given as 0.5 gm/kg/hour and the osmolarity ([3]; 5% dextrose) is given as 253 mOsm/L. The tonicity ([3]; 5% dextrose solution) was “isotonic”.
For Interferon-alpha, the efficacy ([4]; listed lymphomas, leukemias, Kaposi's sarcoma) is listed as “effective” and the “effect on other tumors” value ([4]; tumors other than those listed) is listed as “no effect”.
